In PubChem BioAssay (NCI):
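All cell lines were grown in 96-well plates and treated with compound for 48 hours. The concentration for 50% growth inhibition is given as GI50. Definition used: TGI = concentration required for complete inhibition of growth.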

Key:
Experiment in all cases: NCI tumour cell line growth inhibition, 48 h
[1] = test system: A498 renal
[2] = test system: HOP-92 NSCLC
[3] = test system: OVCAR-3 ovarian
[4] = test system: SK-MEL-28 melanoma
[5] = test system: SF-539 CNS
[6] = test system: 786-0 renal
[7] = test system: HCC-2998 colon
[8] = test system: M14 melanoma
[9] = test system: NCI-H23 lung
[10] = test system: EKVX NSCLC
[11] = test system: MALME-3M melanoma
[12] = test system: TK-10 renal
[13] = test system: NCI-H226 lung
[14] = test system: COLO 205 colon
[15] = test system: SK-OV-3 ovarian
[16] = test system: A549 NSCLC
[17] = test system: IGROV1 ovarian
[18] = test system: CAKI-1 renal
[19] = test system: OVCAR-8 ovarian
[20] = test system: HOP-62 NSCLC
[21] = test system: PC-3 prostate
[22] = test system: NCI-H522 lung
[23] = test system: DU-145 prostate
[24] = test system: HCT-116 colon
[25] = test system: UO-31 renal
[26] = test system: ACHN renal
[27] = test system: UACC-257 melanoma
[28] = test system: SK-MEL-2 melanoma
[29] = test system: HL-60(TB) leukemia
[30] = test system: OVCAR-4 ovarian
[31] = test system: SF-268 CNS
[32] = test system: HCT-15 colon
[33] = test system: BT-549 breast
[34] = test system: HT29 colon
[35] = test system: SK-MEL-5 melanoma
[36] = test system: SNB-19 CNS
[37] = test system: K-562 leukemia
[38] = test system: MOLT-4 leukemia
[39] = test system: T-47D breast
[40] = test system: SR leukemia
[41] = test system: SNB-75 CNS
[42] = test system: RPMI-8226 leukemia
[43] = test system: SF-295 CNS
[44] = test system: NCI/ADR-RES ovarian
[45] = test system: CCRF-CEM leukemia
[46] = test system: OVCAR-5 ovarian
[47] = test system: MDA-MB-231 breast
[48] = test system: UACC-62 melanoma
[49] = test system: MCF7 breast
[50] = test system: NCI-H460 lung
[51] = test system: KM12 colon
[52] = test system: HS 578T breast
[53] = test system: RXF 393 renal
[54] = test system: MDA-MB-435
[55] = test system: SN12C renal
[56] = test system: U251 CNS
[57] = test system: SW-620 colon
[58] = test system: LOX IMVI melanoma

`Cc1[nH]c(C(=O)Nc2ccc(S(=O)(=O)N3CCCCC3)cc2OCCOCCOCCOCCOCCOCCOCCOCCOCCOc2cc(S(=O)(=O)N3CCCCC3)ccc2NC(=O)c2[nH]c(C)c3c2CCCCC3=O)c2c1C(=O)CCCC2` gave a GI50 [1] of 1.21 µM, a GI50 [2] of 0.433 µM and a TGI [2] of over 100 µM. The GI50 [3] was 0.483 µM, the GI50 [4] was 1.59 µM and the TGI [4] was over 100 µM. It also gave a GI50 [5] of 0.599 µM, a TGI [5] of over 100 µM and a GI50 [6] of 1.69 µM. For the same compound, the TGI [6] was over 100 µM, the GI50 [7] was 0.296 µM and the TGI [7] was 1.12 µM. The GI50 [8] was 1.01 µM, the TGI [8] was over 100 µM and the GI50 [9] was 2.38 µM. For the same compound, the TGI [9] was over 100 µM, the GI50 [10] was 2.97 µM and the TGI [10] was over 100 µM. For the same compound, the GI50 [11] was 0.909 µM, the TGI [11] was over 23.5 µM and the GI50 [12] was 2.05 µM. For the same compound, the TGI [12] was over 100 µM, the GI50 [13] was 0.542 µM and the TGI [13] was 8.73 µM. The GI50 [14] was 1.17 µM, the TGI [14] was over 100 µM and the GI50 [15] was 0.286 µM. For the same compound, the TGI [15] was 0.806 µM, the GI50 [16] was 2.39 µM and the TGI [16] was over 100 µM. For the same compound, the GI50 [17] was 0.48 µM, the GI50 [18] was 0.841 µM and the TGI [18] was over 100 µM. For the same compound, the GI50 [19] was 1.67 µM, the TGI [19] was over 100 µM and the GI50 [20] was 1.11 µM. For the same compound, the TGI [20] was over 100 µM, the GI50 [21] was 1.09 µM and the TGI [21] was over 100 µM. It also gave a GI50 [22] of 0.19 µM, a TGI [22] of 1.21 µM and a GI50 [23] of 4.99 µM. It also gave a TGI [23] of over 100 µM, a GI50 [24] of 0.538 µM and a TGI [24] of 4.41 µM. It also gave a GI50 [25] of 4.83 µM, a TGI [25] of over 100 µM and a GI50 [26] of 17.4 µM. For the same compound, the TGI [26] was over 100 µM, the GI50 [27] was 0.944 µM and the GI50 [28] was 0.768 µM. It also gave a GI50 [29] of 0.108 µM, a GI50 [30] of 0.909 µM and a TGI [30] of over 29.7 µM. For the same compound, the GI50 [31] was 2.29 µM, the TGI [31] was over 100 µM and the GI50 [32] was 12.9 µM. It also gave a TGI [32] of over 100 µM, a GI50 [33] of 0.911 µM and a TGI [33] of over 100 µM. It also gave a GI50 [34] of 0.648 µM, a TGI [34] of over 19.8 µM and a GI50 [35] of 3.92 µM. It also gave a TGI [35] of over 89.8 µM, a GI50 [36] of 1.02 µM and a TGI [36] of over 100 µM. The GI50 [37] was 0.435 µM, the TGI [37] was over 100 µM and the GI50 [38] was 0.861 µM. For the same compound, the TGI [38] was over 32.8 µM, the GI50 [39] was 0.489 µM and the TGI [39] was over 100 µM. It also gave a GI50 [40] of 0.107 µM, a TGI [40] of over 32.5 µM and a GI50 [41] of 0.0788 µM. It also gave a TGI [41] of 1.18 µM, a GI50 [42] of 0.325 µM and a GI50 [43] of 2.83 µM. For the same compound, the TGI [43] was over 100 µM, the GI50 [44] was over 100 µM and the TGI [44] was over 100 µM. It also gave a GI50 [45] of 1.29 µM, a TGI [45] of over 100 µM and a GI50 [46] of 3.26 µM. For the same compound, the TGI [46] was over 100 µM, the GI50 [47] was 0.776 µM and the TGI [47] was over 100 µM. The GI50 [48] was 0.461 µM, the TGI [48] was 3.71 µM and the GI50 [49] was 0.095 µM. For the same compound, the TGI [49] was over 100 µM, the GI50 [50] was 1.77 µM and the TGI [50] was over 100 µM. The GI50 [51] was 1.68 µM, the TGI [51] was over 100 µM and the GI50 [52] was 0.375 µM. The TGI [52] was over 21.9 µM, the GI50 [53] was 1.26 µM and the TGI [53] was over 100 µM. For the same compound, the GI50 [54] was 0.766 µM, the TGI [54] was over 100 µM and the GI50 [55] was 1.48 µM. The TGI [55] was over 100 µM, the GI50 [56] was 1.4 µM and the TGI [56] was over 100 µM. For the same compound, the GI50 [57] was 2.05 µM, the TGI [57] was over 100 µM and the GI50 [58] was 0.169 µM. The TGI [58] was 0.639 µM.
